Key:
JAK2 = biological target: T1, JAK2 (Homo sapiens, UniProt O60674); experiment: Kinobeads assay, JAK2; type: binding; settings: mixed Molt4/Ramos cell lysate, dot blot detection
T1 construct: endogenous in cells; host or cells: Mixed Molt4/Ramos lysate (1:2)
Protocol: (§1) The compounds of the present invention as described in the previous examples were tested in a Kinobeads™ assay as described for ZAP-70 (WO-A 2007/137867). Briefly, test compounds (at various concentrations) and the affinity matrix with the immobilized aminopyrido-pyrimidine ligand 24 were added to cell lysate aliquots and allowed to bind to the proteins in the lysate sample. After the incubation time the beads with captured proteins were separated from the lysate. Bound proteins were then eluted and the presence of JAK2 and JAK3 was detected and quantified using specific antibodies in a dot blot procedure and the Odyssey infrared detection system. Dose response curves for individual kinases were generated and IC50 values calculated. Kinobeads™ assays for ZAP-70 (WO-A 2007/137867) and for kinase selectivity profiling (WO-A 2006/134056) have been previously described.
(§2) The affinity matrix was washed two times with 15 mL of 1×DP buffer containing 0.2% NP40 (IGEPAL® CA-630, Sigma, #13021) and then resuspended in 1×DP buffer containing 0.2% NP40 (3% beads slurry).
(§3) 5×DP buffer: 250 mM Tris-HCl pH 7.4, 25% Glycerol, 7.5 mM MgCl2, 750 mM NaCl, 5 mM Na3VO4; filter the 5×DP buffer through a 0.22 μm filter and store in aliquots at −80° C. The 5×DP buffer is diluted with H2O to 1×DP buffer containing 1 mM DTT and 25 mM NaF.
(§4) Stock solutions of test compounds were prepared in DMSO. In a 96 well plate 30 μL solution of diluted test compounds at 5 mM in DMSO were prepared. Starting with this solution a 1:3 dilution series (9 steps) was prepared. For control experiments (no test compound) a buffer containing 2% DMSO was used.
(§5) Molt4 cells (ATCC catalogue number CRL-1582) and Ramos cells (ATCC catalogue number CRL-1596) were grown in 1 L Spinner flasks (Integra Biosciences, #182101) in suspension in RPMI 1640 medium (Invitrogen, #21875-034) supplemented with 10% Fetal Bovine Serum (Invitrogen) at a density between 0.15×10^6 and 1.2×10^6 cells/mL. Cells were harvested by centrifugation, washed once with 1×PBS buffer (Invitrogen, #14190-094) and cell pellets were frozen in liquid nitrogen and subsequently stored at −80° C. Cells were homogenized in a Potter S homogenizer in lysis buffer: 50 mM Tris-HCl, 0.8% NP40, 5% glycerol, 150 mM NaCl, 1.5 mM MgCl2, 25 mM NaF, 1 mM sodium vanadate, 1 mM DTT, pH 7.5. One complete EDTA-free tablet (protease inhibitor cocktail, Roche Diagnostics, 1873580) per 25 mL buffer was added. The material was dounced 10 times using a mechanized POTTER S, transferred to 50 mL falcon tubes, incubated for 30 minutes on ice and spun down for 10 minutes at 20,000 g at 4° C. (10,000 rpm in Sorvall SLA600, precooled). The supernatant was transferred to an ultracentrifuge (UZ)-polycarbonate tube (Beckmann, 355654) and spun for 1 hour at 100.000 g at 4° C. (33.500 rpm in Ti50.2, precooled). The supernatant was transferred again to a fresh 50 mL falcon tube, the protein concentration was determined by a Bradford assay (BioRad) and samples containing 50 mg of protein per aliquot were prepared. The samples were immediately used for experiments or frozen in liquid nitrogen and stored frozen at −80° C.
(§6) Cell lysate (approximately 50 mg protein per plate) was thawed in a water bath at room temperature and then stored on ice. To the thawed cell lysate 1×DP 0.8% NP40 buffer containing protease inhibitors (1 tablet for 25 mL buffer; EDTA-free protease inhibitor cocktail; Roche Diagnostics 1873580) was added in order to reach a final protein concentration of 10 mg/mL total protein. The diluted cell lysate was stored on ice. Mixed Molt4/Ramos lysate was prepared by combining one volume of Molt4 lysate and two volumes of Ramos lysate (ratio 1:2).
(§7) To a 96 well filter plate (Multiscreen HTS, BV Filter Plates, Millipore #MSBVN1250) were added per well: 100 μL affinity matrix (3% beads slurry), […], of compound solution, and 50 μL of diluted lysate. […]

JAK3 = biological target: T2, JAK3 (Homo sapiens, UniProt P52333); experiment: Kinobeads assay, JAK3; type: binding; settings: mixed Molt4/Ramos cell lysate, dot blot detection
T2 construct: endogenous in cells; host or cells: Mixed Molt4/Ramos lysate (1:2)
T2 sequence (P52333 1-1124): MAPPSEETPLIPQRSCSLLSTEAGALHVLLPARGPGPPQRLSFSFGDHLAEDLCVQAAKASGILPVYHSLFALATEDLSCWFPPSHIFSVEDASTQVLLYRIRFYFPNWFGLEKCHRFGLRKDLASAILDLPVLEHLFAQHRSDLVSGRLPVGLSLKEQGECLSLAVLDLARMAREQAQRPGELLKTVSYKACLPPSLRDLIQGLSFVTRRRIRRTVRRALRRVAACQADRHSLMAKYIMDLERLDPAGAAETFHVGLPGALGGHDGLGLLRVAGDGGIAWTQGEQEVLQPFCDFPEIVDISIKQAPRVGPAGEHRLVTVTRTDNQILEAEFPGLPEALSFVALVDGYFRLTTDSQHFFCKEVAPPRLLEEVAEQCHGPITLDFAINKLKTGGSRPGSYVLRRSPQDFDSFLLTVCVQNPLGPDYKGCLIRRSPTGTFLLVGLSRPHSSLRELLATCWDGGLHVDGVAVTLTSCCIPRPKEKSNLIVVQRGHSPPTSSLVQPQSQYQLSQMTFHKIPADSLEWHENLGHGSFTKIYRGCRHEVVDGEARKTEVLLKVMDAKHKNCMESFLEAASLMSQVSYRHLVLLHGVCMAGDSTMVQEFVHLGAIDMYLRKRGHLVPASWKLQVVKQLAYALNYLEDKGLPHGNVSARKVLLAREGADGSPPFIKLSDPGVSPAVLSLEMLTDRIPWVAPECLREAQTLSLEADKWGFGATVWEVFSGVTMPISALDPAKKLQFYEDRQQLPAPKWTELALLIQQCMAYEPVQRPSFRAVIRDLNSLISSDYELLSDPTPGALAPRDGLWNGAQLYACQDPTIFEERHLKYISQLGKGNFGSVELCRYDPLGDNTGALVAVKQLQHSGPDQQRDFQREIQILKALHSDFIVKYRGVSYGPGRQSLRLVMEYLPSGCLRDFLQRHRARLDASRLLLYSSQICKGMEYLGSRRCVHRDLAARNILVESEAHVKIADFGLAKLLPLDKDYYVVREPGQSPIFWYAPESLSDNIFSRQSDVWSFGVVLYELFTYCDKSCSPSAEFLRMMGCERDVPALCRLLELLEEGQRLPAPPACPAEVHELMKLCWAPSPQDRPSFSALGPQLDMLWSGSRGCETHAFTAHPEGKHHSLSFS
Protocol: as §1, §2, §3, §4, §5, §6, §7

T1 sequence (O60674 whole entry): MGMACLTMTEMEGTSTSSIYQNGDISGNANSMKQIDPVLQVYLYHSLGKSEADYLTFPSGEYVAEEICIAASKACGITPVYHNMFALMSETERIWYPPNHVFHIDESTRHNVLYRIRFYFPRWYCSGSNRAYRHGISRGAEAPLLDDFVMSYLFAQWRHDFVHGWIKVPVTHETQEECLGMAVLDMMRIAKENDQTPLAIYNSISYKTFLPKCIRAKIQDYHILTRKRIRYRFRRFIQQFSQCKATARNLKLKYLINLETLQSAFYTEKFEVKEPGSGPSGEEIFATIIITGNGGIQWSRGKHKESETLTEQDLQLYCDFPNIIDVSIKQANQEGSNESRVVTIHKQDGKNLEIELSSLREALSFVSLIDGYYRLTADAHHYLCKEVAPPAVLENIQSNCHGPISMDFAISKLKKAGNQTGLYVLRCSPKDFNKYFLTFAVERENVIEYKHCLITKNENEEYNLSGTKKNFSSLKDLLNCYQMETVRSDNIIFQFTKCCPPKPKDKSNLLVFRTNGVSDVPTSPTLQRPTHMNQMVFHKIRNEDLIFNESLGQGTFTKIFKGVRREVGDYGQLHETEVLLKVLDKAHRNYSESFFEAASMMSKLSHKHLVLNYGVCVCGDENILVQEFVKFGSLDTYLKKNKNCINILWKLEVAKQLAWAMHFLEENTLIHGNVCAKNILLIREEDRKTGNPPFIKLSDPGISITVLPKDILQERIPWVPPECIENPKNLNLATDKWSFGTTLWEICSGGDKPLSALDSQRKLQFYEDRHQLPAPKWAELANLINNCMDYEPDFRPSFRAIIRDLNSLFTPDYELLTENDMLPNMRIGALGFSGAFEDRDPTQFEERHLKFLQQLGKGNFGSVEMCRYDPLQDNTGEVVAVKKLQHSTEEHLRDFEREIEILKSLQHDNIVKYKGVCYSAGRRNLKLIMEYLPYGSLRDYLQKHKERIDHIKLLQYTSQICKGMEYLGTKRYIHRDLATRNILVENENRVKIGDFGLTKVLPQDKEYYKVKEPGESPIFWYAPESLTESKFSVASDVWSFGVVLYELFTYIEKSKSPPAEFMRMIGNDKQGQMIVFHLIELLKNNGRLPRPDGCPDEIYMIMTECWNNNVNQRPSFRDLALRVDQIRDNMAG

Compound | IC50 (JAK2) [µM] | IC50 (JAK3) [µM]
Cn1cc(Nc2ncc3cnn(Cc4cccnc4F)c3n2)cn1 [Example 45, 1-((2-Fluoropyridin-3-yl)methyl)-N-(1-methyl-1H-pyrazol-4-yl)-1H-pyrazolo[3,4-d]pyrimidin-6-amine] | 1 to 10 | < 0.1
Cn1cc(Nc2ncc3cnn(Cc4ccccc4)c3n2)cn1 [Example 76, 1-Benzyl-N-(1-methyl-1H-pyrazol-4-yl)-1H-pyrazolo[3,4-d]pyrimidin-6-amine] | 1 to 10 | < 0.1
N#Cc1ccccc1Cn1ncc2cnc(Nc3cnn(CC(=O)N4CCOCC4)c3)nc21 [Example 14, 2-((6-(1-(2-Morpholino-2-oxoethyl)-1H-pyrazol-4-ylamino)-1H-pyrazolo[3,4-d]pyrimidin-1-yl)methyl)benzonitrile] | 0.1 to 1 | < 0.1
N#Cc1ccccc1Cn1ncc2cnc(Nc3cnn(CCO)c3)nc21 [Example 25, 2-((6-(1-(2-Hydroxyethyl)-1H-pyrazol-4-ylamino)-1H-pyrazolo[3,4-d]pyrimidin-1-yl)methyl)benzonitrile] | 1 to 10 | < 0.1
COc1cccc(Cn2ncc3cnc(Nc4cnn(C)c4)nc32)c1F [Example 93, 1-(2-Fluoro-3-methoxybenzyl)-N-(1-methyl-1H-pyrazol-4-yl)-1H-pyrazolo[3,4-d]pyrimidin-6-amine] | ≥ 10 | 0.1 to 1
CC(=O)n1cc(Nc2ncc3cnn(Cc4ccccc4F)c3n2)cn1 [Example 95, 1-(4-((1-(2-Fluorobenzyl)-1H-pyrazolo[3,4-d]pyrimidin-6-yl)amino)-1H-pyrazol-1-yl)ethanone] | 1 to 10 | < 0.1
N#Cc1ccccc1Cn1ncc2cnc(Nc3cn[nH]c3)nc21 [Example 4, 2-((6-(1H-Pyrazol-4-ylamino)-1H-pyrazolo[3,4-d]pyrimidin-1-yl)methyl)benzonitrile] | 0.1 to 1 | < 0.1
Cn1cc(Nc2ncc3cnn(-c4ccccc4)c3n2)cn1 [Example 74, N-(1-Methyl-1H-pyrazol-4-yl)-1-phenyl-1H-pyrazolo[3,4-d]pyrimidin-6-amine] | 1 to 10 | 0.1 to 1

Second part, the compound after the results:

IC50 (JAK2) [µM] | IC50 (JAK3) [µM] | Compound
1 to 10 | 0.1 to 1 | CNC(=O)c1ccc(-n2ncc3cnc(Nc4cnn(C)c4)nc32)cc1 [Example 136, N-methyl-4-(6-((1-methyl-1H-pyrazol-4-yl)amino)-1H-pyrazolo[3,4-d]pyrimidin-1-yl)benzamide]
1 to 10 | 0.1 to 1 | CN1CCN(C(=O)c2ccc(-n3ncc4cnc(Nc5cnn(C)c5)nc43)cc2)CC1 [Example 149, (4-(6-((1-Methyl-1H-pyrazol-4-yl)amino)-1H-pyrazolo[3,4-d]pyrimidin-1-yl)phenyl)(4-methylpiperazin-1-yl)methanone]
1 to 10 | 0.1 to 1 | Fc1c(Cl)cccc1Cn1ncc2cnc(Nc3cnn(CC(F)F)c3)nc21 [Example 156, 1-(3-Chloro-2-fluorobenzyl)-N-(1-(2,2-difluoroethyl)-1H-pyrazol-4-yl)-1H-pyrazolo[3,4-d]pyrimidin-6-amine]
1 to 10 | < 0.1 | CNC(=O)Cn1cc(Nc2ncc3cnn(Cc4cccc(F)n4)c3n2)cn1 [Example 291, 2-(4-((1-((6-Fluoropyridin-2-yl)methyl)-1H-pyrazolo[3,4-d]pyrimidin-6-yl)amino)-1H-pyrazol-1-yl)-N-methylacetamide]
≥ 10 | < 0.1 | Cn1cc(Nc2ncc3cnn(Cc4cccc(OC[C@H]5CCCO5)n4)c3n2)cn1 [Example 193, (R)—N-(1-Methyl-1H-pyrazol-4-yl)-1-((6-((tetrahydrofuran-2-yl)methoxy)pyridin-2-yl)methyl)-1H-pyrazolo[3,4-d]pyrimidin-6-amine]
1 to 10 | 0.1 to 1 | Cn1cc(Nc2ncc3cnn(Cc4cccc(F)c4C#N)c3n2)cn1 [Example 108, 2-Fluoro-6-((6-((1-methyl-1H-pyrazol-4-yl)amino)-1H-pyrazolo[3,4-d]pyrimidin-1-yl)methyl)benzonitrile]
1 to 10 | < 0.1 | Cn1cc(Nc2ncc3cnn(Cc4cccc(OCCO)c4)c3n2)cn1 [Example 166, 2-(3-((6-((1-Methyl-1H-pyrazol-4-yl)amino)-1H-pyrazolo[3,4-d]pyrimidin-1-yl)methyl)phenoxy)ethanol]
≥ 10 | 0.1 to 1 | Cn1nc(Nc2ncc3cnn(Cc4ccccc4F)c3n2)cc1C(=O)O [Example 236, 3-((1-(2-Fluorobenzyl)-1H-pyrazolo[3,4-d]pyrimidin-6-yl)amino)-1-methyl-1H-pyrazole-5-carboxylic acid]
0.1 to 1 | < 0.1 | CNC(=O)c1cc(Nc2ncc3cnn(Cc4ccccc4F)c3n2)cn1C [Example 242, 4-((1-(2-Fluorobenzyl)-1H-pyrazolo[3,4-d]pyrimidin-6-yl)amino)-N,1-dimethyl-1H-pyrrole-2-carboxamide]
≥ 10 | 0.1 to 1 | CN(C)c1cccc(Cn2ncc3cnc(Nc4cnn(C)c4)nc32)n1 [Example 183]
0.1 to 1 | < 0.1 | Fc1ccc(F)c(Cn2ncc3cnc(Nc4cnn(CC(F)F)c4)nc32)c1F [Example 157, N-(1-(2,2-Difluoroethyl)-1H-pyrazol-4-yl)-1-(2,3,6-trifluorobenzyl)-1H-pyrazolo[3,4-d]pyrimidin-6-amine]
0.1 to 1 | < 0.1 | Fc1ccccc1Cn1ncc2cnc(Nc3cnn(CC4CCNC4)c3)nc21 (stereo not shown) [Example 306, 1-(2-Fluorobenzyl)-N-(1-(pyrrolidin-3-ylmethyl)-1H-pyrazol-4-yl)-1H-pyrazolo[3,4-d]pyrimidin-6-amine]
